The source of these data is ChEMBL document CHEMBL1201862, “PubChem BioAssay data set” (2004).

Some test systems named below: SW-620; SF-268; RXF 393; 786-0; OVCAR-3; NCI-H23; CAKI-1; A498; U-251; CCRF-CEM; SF-295; KM12; HCT-15; COLO 205; UO-31; HL-60; Malme-3M.
Assay in all cases: NCI-60 cell line screen, 48 h

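Where inhibition never reached the appropriate level, the endpoint shown equals the highest concentration tested. Otherwise, values were interpolated linearly from a five-concentration, 48-hour dose response in 96-well plates. GI50 marks 50% less growth.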 The source made the active and inactive calls. No stated cut-off is given here; in the data, active = GI50 up to about 1.1 µM and inactive = higher.

For `Cc1ccc(C)c(NC(=O)c2cc(-c3ccc([N+](=O)[O-])cc3)nc(N)n2)c1`, the GI50 in the test with SW-620, with SF-268, in the test on RXF 393, in the test with 786-0, with OVCAR-3 and with NCI-H23 was > 100 µM (inactive) each time. Besides, the GI50 with CAKI-1, with A498, in the test with U-251, with CCRF-CEM, with SF-295 and in the test with KM12 was > 100 µM (inactive) in each case. The GI50 in the test on HCT-15 is over 100 µM; in the test on COLO 205 it was > 100 µM (inactive); in the test with UO-31, > 100 µM (inactive); in the test with HL-60, > 100 µM (inactive); in the test with Malme-3M, > 100 µM (inactive).

For `[N-]=[N+]=CC(=O)C1(C(=O)C=[N+]=[N-])CC1`, the GI50 with SW-620, with SF-268, in the test on RXF 393, with 786-0, in the test with OVCAR-3 and with NCI-H23 was > 100 µM (inactive) throughout. The GI50 in the test with A498 is > 100 µM (inactive); in the test on U-251 it was > 100 µM (inactive); with CCRF-CEM it was > 100 µM (inactive); in the test on SF-295, > 100 µM (inactive); with KM12, > 100 µM (inactive); in the test on HCT-15, over 100 µM. Also, the GI50 with COLO 205, in the test with UO-31, in the test on HL-60 and with Malme-3M was > 100 µM (inactive) throughout.

Regarding `CCOC(=O)C(=Cc1ccc(C(=O)OC)cc1)C(=O)OCC`, the GI50 in the test on SW-620 is 2.24 µM (inactive); in the test with SF-268 it was 2.4 µM (inactive); with 786-0, 1.62 µM (inactive); in the test with OVCAR-3 it was 3.41 µM (inactive); with NCI-H23, 1.76 µM (inactive); with CAKI-1, 1.67 µM (inactive). Besides, the GI50 in the test on A498 was 13.2 µM (inactive); in the test with U-251, 1.66 µM (inactive); in the test with CCRF-CEM it was 1.58 µM (inactive); in the test with SF-295, 5.26 µM (inactive); with KM12, 2.92 µM (inactive); in the test on HCT-15, 2.37 µM. For the same compound, the GI50 with COLO 205 was 1.85 µM (inactive); in the test with HL-60, 1.54 µM (inactive); with Malme-3M, 1.8 µM (inactive).

Turning to `CCOC(=O)C1S/C(=N\c2ccc(Cl)cc2)N=C1C` (centres undefined), the GI50 with SW-620 is 19.9 µM (inactive); in the test on SF-268, 17 µM (inactive); with RXF 393 it was 16.6 µM (inactive); with 786-0 it was 16.9 µM (inactive); in the test with OVCAR-3, 23.6 µM (inactive); in the test with NCI-H23 it was 18 µM (inactive). Further, the GI50 is 18.3 µM (inactive) in the test with A498; 18.8 µM (inactive) in the test on U-251; 19.6 µM (inactive) in the test on SF-295; 18.2 µM (inactive) in the test with KM12; 16.1 µM with HCT-15; 17.5 µM (inactive) in the test on COLO 205. Further, the GI50 in the test on UO-31 was 19 µM (inactive); with HL-60, 23 µM (inactive); in the test with Malme-3M, 19.9 µM (inactive).

Take `CC(C)(C)c1cc(Oc2ccc(C#N)c(C#N)c2)cc(C(C)(C)C)c1`: the GI50 with SF-268 was > 100 µM (inactive); in the test with RXF 393 it was > 100 µM (inactive); with 786-0 it was 90.2 µM (inactive); in the test on OVCAR-3, > 100 µM (inactive); in the test with NCI-H23, > 100 µM (inactive); with CAKI-1, > 100 µM (inactive). The GI50 with A498 was > 100 µM (inactive); with U-251, 85.5 µM (inactive); in the test on CCRF-CEM, 38.3 µM (inactive); in the test on SF-295, > 100 µM (inactive); in the test with KM12 it was > 100 µM (inactive); with HCT-15 it was 48.3 µM. In addition, the GI50 in the test with COLO 205, in the test on UO-31, in the test with HL-60 and in the test on Malme-3M was > 100 µM (inactive) each time.

Turning to `C/C(=N\NC(N)=O)C(CN1CCCCC1)C(c1ccccc1)c1c(O)c2ccccc2oc1=O` (centres undefined), the GI50 was > 100 µM (inactive) in the test with SW-620; > 100 µM (inactive) with SF-268; > 100 µM (inactive) in the test on RXF 393; 0.6 µM (active) in the test on 786-0; > 100 µM (inactive) in the test with OVCAR-3; > 100 µM (inactive) with CAKI-1. Also, the GI50 with A498 was > 100 µM (inactive); in the test on U-251, > 100 µM (inactive); in the test on CCRF-CEM it was > 100 µM (inactive); in the test on SF-295, > 100 µM (inactive); in the test on KM12 it was > 100 µM (inactive); in the test with HCT-15, over 100 µM. In addition, the GI50 in the test with COLO 205, in the test on UO-31, with HL-60 and in the test with Malme-3M was > 100 µM (inactive) in each case.

Turning to `COc1ccc2c(CCNS(=O)(=O)c3ccccc3)c(C(C)=O)[nH]c2c1[N+](=O)[O-]`, the GI50 in the test on SW-620 was > 100 µM (inactive); in the test with SF-268 it was 53.3 µM (inactive); in the test on 786-0, 77.8 µM (inactive); with OVCAR-3, > 100 µM (inactive); in the test on NCI-H23, > 100 µM (inactive); in the test with CAKI-1, > 10 µM (inactive). The GI50 with A498 was > 100 µM (inactive); in the test with U-251, > 100 µM (inactive); with CCRF-CEM, > 100 µM (inactive); in the test on SF-295 it was 63.7 µM (inactive); with KM12, > 100 µM (inactive); with HCT-15 it was over 100 µM. Further, the GI50 in the test with COLO 205, with UO-31 and in the test on HL-60 was > 100 µM (inactive) in each case.

As for `Cc1cc(=O)oc2cc(OCc3nc4ccccc4c(=O)n3-c3ccccc3)ccc12`, the GI50 in the test on SW-620 was > 100 µM (inactive); in the test with SF-268 it was > 100 µM (inactive); in the test on RXF 393, 34 µM (inactive); in the test with 786-0, 38.4 µM (inactive); in the test with OVCAR-3, > 100 µM (inactive); in the test with NCI-H23 it was > 100 µM (inactive). Besides, the GI50 was > 100 µM (inactive) in the test with CAKI-1; > 100 µM (inactive) in the test on A498; 54.7 µM (inactive) in the test on U-251; > 100 µM (inactive) in the test on CCRF-CEM; 58.2 µM (inactive) in the test on SF-295; > 100 µM (inactive) with KM12. Moreover, the GI50 in the test on HCT-15 is over 100 µM; with COLO 205 it was > 100 µM (inactive); with HL-60, > 100 µM (inactive); in the test with Malme-3M, > 100 µM (inactive).

With `N/N=C(\CC1OC(=O)c2ccccc21)c1ccco1` (centres undefined), the GI50 in the test on SW-620 is > 100 µM (inactive); in the test on SF-268 it was > 100 µM (inactive); in the test on RXF 393, > 100 µM (inactive); with 786-0 it was < 0.01 µM (active); in the test on OVCAR-3 it was > 100 µM (inactive); in the test on NCI-H23 it was > 100 µM (inactive). Besides, the GI50 with CAKI-1 is > 100 µM (inactive); in the test with A498, > 100 µM (inactive); with CCRF-CEM, 59.2 µM (inactive); in the test with SF-295 it was > 100 µM (inactive); in the test with KM12, > 100 µM (inactive); with HCT-15, over 100 µM. Further, the GI50 in the test with COLO 205, with UO-31, with HL-60 and in the test with Malme-3M was > 100 µM (inactive) throughout.

As for `O=C(CC(=O)Nc1cccc(Cl)c1)NNCC(=O)Nc1nnc(-c2ccccc2)s1`, the GI50 with SW-620 was 39.4 µM (inactive); with SF-268, 31.8 µM (inactive); in the test with 786-0, 16.4 µM (inactive); with OVCAR-3 it was 32.7 µM (inactive); with NCI-H23 it was 94.6 µM (inactive); in the test on CAKI-1, > 100 µM (inactive). In addition, the GI50 in the test on A498 is 20.8 µM (inactive); with U-251, 34 µM (inactive); with SF-295, > 100 µM (inactive); in the test on KM12, > 100 µM (inactive); in the test on HCT-15 it was 39.3 µM; in the test with COLO 205 it was > 100 µM (inactive). Also, the values for the GI50 with UO-31 and in the test on HL-60 were 45 µM (inactive) and 25.7 µM (inactive), respectively.

On to `CCOc1ccc(NC(=O)/C(Cc2nc3ccccc3nc2O)=N\O)cc1`, for which the GI50 in the test with SW-620, in the test with SF-268, with RXF 393, in the test on 786-0, in the test on OVCAR-3 and in the test on NCI-H23 was > 100 µM (inactive) in each case. The GI50 in the test on CAKI-1 is > 100 µM (inactive); in the test on A498 it was > 100 µM (inactive); with U-251 it was > 100 µM (inactive); in the test on CCRF-CEM it was > 100 µM (inactive); with KM12, > 100 µM (inactive); in the test on HCT-15 it was over 100 µM. Besides, the GI50 in the test with COLO 205 was > 100 µM (inactive); with UO-31, > 100 µM (inactive); in the test on HL-60 it was > 10 µM (inactive); with Malme-3M, > 100 µM (inactive).

Consider `COc1ccc(-c2cc(-c3ccccc3)c(C#N)c(=O)[nH]2)cc1`, for which the GI50 with SW-620, with SF-268, in the test on RXF 393, in the test on 786-0, with OVCAR-3 and with NCI-H23 was > 100 µM (inactive) throughout. Also, the GI50 in the test with A498 was > 100 µM (inactive); in the test with U-251, > 100 µM (inactive); with CCRF-CEM it was > 100 µM (inactive); in the test with SF-295 it was > 100 µM (inactive); with KM12, > 100 µM (inactive); in the test on HCT-15 it was over 100 µM. Further, the GI50 in the test on COLO 205, in the test on UO-31, in the test on HL-60 and in the test with Malme-3M was > 100 µM (inactive) each time.

Take `CC(C)C(Nc1c2ccccc2[n+]([O-])c2ccccc12)C(=O)O` (centres undefined): the GI50 was > 100 µM (inactive) in the test on SW-620; 55.3 µM (inactive) in the test with SF-268; > 100 µM (inactive) in the test on 786-0; > 100 µM (inactive) with OVCAR-3; 36 µM (inactive) in the test on NCI-H23; > 100 µM (inactive) in the test with CAKI-1. The GI50 in the test on A498 is > 100 µM (inactive); with U-251, > 100 µM (inactive); in the test on CCRF-CEM, 47.8 µM (inactive); in the test on SF-295, > 100 µM (inactive); in the test with KM12 it was > 100 µM (inactive); with HCT-15, 45.9 µM. For the same compound, the GI50 is 52.5 µM (inactive) with COLO 205, 55.5 µM (inactive) in the test with UO-31, 26.2 µM (inactive) in the test with HL-60 and 28.1 µM (inactive) in the test on Malme-3M.
